Test results taken from patent US12391677B2, “Thyroid hormone receptor agonists” (INVENTISBIO CO., LTD., priority 2018, dated 2025).

Key:
[1] = target: ligand binding domain of thyroid hormone receptor beta (Homo sapiens (Human), UniProt P10828); test: Thyroid hormone receptor TR-FRET binding assay (TRβ LBD); conditions: TRβ LBD 2 nM
Procedure: (§1) TR-FRET binding assay was used to test representative compounds herein.
(§2) The ligand binding domain of thyroid hormone receptor alpha and the ligand binding domain of thyroid hormone receptor beta with GST tag were purchased from Invitrogen. Biotin-SRC2-2 coactivator peptide was purchased from Sangon Biotech, Europium anti-GST and Streptavidin-D2 was from Cisbio.
(§3) Five microliters of 4× compound serial dilution was added in the 384-well plate, white, low volume, round-bottom assay plate. […] Centrifuge the assay plates at 1000 g for 1 min and incubate 1 hr at RT, protected from light. […] Calculate EC50 by fitting % Activity values and log of compound concentrations to nonlinear regression (dose response—variable slope) with Graphpad 5.0.

[2] = target: TRβ-GAL4 binding domain chimeric receptors (Homo sapiens (Human), UniProt P10828); test: Thyroid hormone receptor cell assay (GAL4 luciferase reporter in HEK293-LUC cells); format: cell-based
TRβ-GAL4 binding domain chimeric receptors, sequence (P10828 217-461, stated change not applied): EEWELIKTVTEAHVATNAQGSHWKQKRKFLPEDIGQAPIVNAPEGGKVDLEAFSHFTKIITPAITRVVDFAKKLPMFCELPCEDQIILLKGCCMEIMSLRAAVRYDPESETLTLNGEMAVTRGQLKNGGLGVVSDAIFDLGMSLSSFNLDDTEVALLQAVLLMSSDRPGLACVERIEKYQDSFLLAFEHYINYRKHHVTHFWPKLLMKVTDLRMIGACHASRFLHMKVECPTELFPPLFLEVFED
Description: TRα-LBD or TRβ-LBD, coding sequence was inserted into pBIND expression vector (Promega, E1581) to express TRβ-GAL4 binding domain chimeric receptors. This expression vector was transfected into HEK293-LUC host cells with reporter vector (pGL4.35 which carry a stably integrated GAL4 promoter driven luciferase reporter gene). Upon agonist binding to the corresponding TRa-GAL4 or TRb-GAL4 chimeric receptor, the chimeric receptor binds to the GAL4 binding sites and stimulates the reporter gene.
Seed 2.5×10^6 HEK293-LUC cells into a 60 mm dish and incubated for 16 h at 37° C. under 5% CO2 atmosphere. Mix 12 microliters of Lipo LTX reagent in 250 microliters of Opti-MEM Medium by inversion. Mix 6 ug of DNA in 250 uL of Opti-MEM medium, then add 6 uL of Lipo PLUS Reagent. Add diluted DNA to each tube of diluted Lipo LTX Reagent (1:1 ratio), and mix by Pipettor and incubate at room temperature for 10 min. The reagent mixture was added to a 60 mm dish, incubated with cells for 4-7 h at 37 degrees under 5% CO2 atmosphere.
75 nL compound was added into 384 well assay plate using ECHO550 and then add HEK293-LUC cells (transfected, 17,000 cells/well) into the plate using phenol red-free DMEM containing 5% charcoal/dextran-treated FBS and incubated for 16-20 h at […] under 5% CO2 atmosphere. Add 25 uL of Steady-Glo Luciferase Assay Reagent into each well. Shake for 5 min and then record the luminescence value on Envision 2104 plate reader.

[3] = target: ligand binding domain of thyroid hormone receptor alpha (Homo sapiens (Human), UniProt P10827); test: Thyroid hormone receptor TR-FRET binding assay (TRα LBD); conditions: TRα LBD 4 nM
ligand binding domain of thyroid hormone receptor alpha, sequence (P10827 other isoform, or with tags, fused parts or gaps del 1-162, other chains not shown): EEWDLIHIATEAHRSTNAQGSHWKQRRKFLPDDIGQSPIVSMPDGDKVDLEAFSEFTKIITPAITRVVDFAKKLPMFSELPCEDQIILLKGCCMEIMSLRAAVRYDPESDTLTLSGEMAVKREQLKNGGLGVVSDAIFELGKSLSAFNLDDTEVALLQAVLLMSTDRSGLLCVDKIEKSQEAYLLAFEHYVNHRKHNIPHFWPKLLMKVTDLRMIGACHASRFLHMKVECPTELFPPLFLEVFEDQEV
Procedure: as §1, §2, §3

ligand binding domain of thyroid hormone receptor beta, sequence (P10828 217-461): as the sequence (P10828 217-461, stated change not applied) above

Structure (SMILES)	EC50 [1] [nM]	EC50 [2] [nM]	EC50 [3] [nM]
CC(C)c1c[nH]c2ccc(Oc3c(Cl)cc(-n4nc(C#N)c(=O)[nH]c4=O)cc3Cl)cc12 [Compound 56]	90	1050	1030
N#Cc1nn(-c2cc(Cl)c(Oc3cc(Cc4ccc(O)cc4)c(=O)[nH]n3)c(Cl)c2)c(=O)[nH]c1=O [Compound 33]	80	11500	1270
CCC(CC)c1cc(Oc2c(Cl)cc(-n3nc(C)c(=O)[nH]c3=O)cc2Cl)n[nH]c1=O [Compound 40]	410	610	38800
Cc1nn(-c2cc(Br)c(Oc3cc(C4CCCC4)c(=O)[nH]n3)c(Br)c2)c(=O)[nH]c1=O [Compound 22]	90	200	1400
N#Cc1nn(-c2cc(Cl)c(Oc3cc(C4CC4)c(=O)[nH]n3)c(Br)c2)c(=O)[nH]c1=O [Compound 7]	370	7380	5820
N#Cc1nn(-c2cc(Cl)c(Oc3cc(CC4CCCCC4)c(=O)[nH]n3)c(Cl)c2)c(=O)[nH]c1=O [Compound 17]	720	12200	> 90000
N#Cc1nn(-c2cc(Cl)c(Oc3cc(C4CC4)c(=O)[nH]n3)c(Cl)c2)c(=O)[nH]c1=O [Compound 1]	540	7100	5760
N#Cc1nn(-c2cc(Br)c(Oc3cc(C4CCCC4)c(=O)[nH]n3)c(Br)c2)c(=O)[nH]c1=O [Compound 20]	170	4980	> 90000
N#Cc1nn(-c2cc(Cl)c(Oc3cc(CC4CCC(O)CC4)c(=O)[nH]n3)c(Cl)c2)c(=O)[nH]c1=O (stereo not shown) [Compound 50]	8800		> 90000
Cc1nn(-c2cc(Cl)c(Oc3cc(C4CCCCC4)c(=O)[nH]n3)c(Cl)c2)c(=O)[nH]c1=O [Compound 15]	4330	4610	60200
Cc1nn(-c2cc(Br)c(Oc3cc(C4CCC4)c(=O)[nH]n3)c(Br)c2)c(=O)[nH]c1=O [Compound 13]	120		1350
Cc1nn(-c2cc(Br)c(Oc3cc(C4CC4)c(=O)[nH]n3)c(Br)c2)c(=O)[nH]c1=O [Compound 23]	60	180	560
N#Cc1nn(-c2cc(Cl)c(Oc3cc(CC4CCC(O)C4)c(=O)[nH]n3)c(Cl)c2)c(=O)[nH]c1=O (stereo not shown) [Compound 51]	> 90000		> 90000
CCc1nn(-c2cc(Cl)c(Oc3cc(C(C)C)c(=O)[nH]n3)c(Cl)c2)c(=O)[nH]c1=O [Compound 37]	1550	1220	9820
N#Cc1nn(-c2cc(Cl)c(Oc3cc(Cc4cccc(O)c4)c(=O)[nH]n3)c(Cl)c2)c(=O)[nH]c1=O [Compound 34]	> 90000		> 90000
N#Cc1nn(-c2cc(Cl)c(Oc3cc(C4CCCCC4)c(=O)[nH]n3)c(Cl)c2)c(=O)[nH]c1=O [Compound 4]	810	12200	36700
Cc1nn(-c2cc(Cl)c(Oc3cc(C4CCCC4)c(=O)[nH]n3)c(Cl)c2)c(=O)[nH]c1=O [Compound 14]	370	650	4060
CC(C)c1cc(Oc2c(Cl)cc(-n3nc(C(C)C)c(=O)[nH]c3=O)cc2Cl)n[nH]c1=O [Compound 38]	> 90000		> 90000
CC(C)c1cc(Oc2c(Cl)cc(-n3nc(C#N)c(=O)[nH]c3=O)cc2C(F)(F)F)n[nH]c1=O [Compound 47]	160	4130	1490
N#Cc1nn(-c2cc(Cl)c(Oc3cc(C4CCCC4)c(=O)[nH]n3)c(Cl)c2)c(=O)[nH]c1=O [Compound 2]	760	9880	36700
Cc1nn(-c2cc(Cl)c(Oc3cc(Cc4ccc(O)cc4)c(=O)[nH]n3)c(Cl)c2)c(=O)[nH]c1=O [Compound 53]	10		1370
Cc1nn(-c2cc(Br)c(Oc3cc(C(C)C)c(=O)[nH]n3)c(Br)c2)c(=O)[nH]c1=O [Compound 46]	30	90	310
CC(=O)N1CCC(c2cc(Oc3c(Cl)cc(-n4nc(C#N)c(=O)[nH]c4=O)cc3Cl)n[nH]c2=O)CC1 [Compound 19]	> 90000		> 90000

More lines, now with the values ahead:

EC50 [1] [nM]	EC50 [2] [nM]	EC50 [3] [nM]	Structure (SMILES)
290	13600		CC(c1cc(Oc2c(Cl)cc(-n3nc(C#N)c(=O)[nH]c3=O)cc2Cl)n[nH]c1=O)C1CCCCC1 (single isomer, unassigned) [Compound 92]
100	11200	1180	N#Cc1nn(-c2cc(Cl)c(Oc3cc(Cc4ccc5[nH]ncc5c4)c(=O)[nH]n3)c(Cl)c2)c(=O)[nH]c1=O [Compound 73]
300	460	14600	Cc1nn(-c2cc(Cl)c(Oc3cc([C@@H](C)c4ccccc4)c(=O)[nH]n3)c(Cl)c2)c(=O)[nH]c1=O (single isomer, unassigned) [Compound 71]
170	8430	90000	N#Cc1nn(-c2cc(Cl)c(Oc3cc(C4CCCC4)c(=O)[nH]n3)c(C(F)(F)F)c2)c(=O)[nH]c1=O [Compound 63]
180	2760		CC(C)c1n[nH]c2ccc(Oc3c(Cl)cc(-n4nc(C#N)c(=O)[nH]c4=O)cc3Cl)cc12 [Compound 90]
160	270	1130	Cc1nn(-c2cc(Cl)c(Oc3cc(C(C)C4CCCCC4)c(=O)[nH]n3)c(Cl)c2)c(=O)[nH]c1=O (single isomer, unassigned) [Compound 75]
430	4350		CC(C)c1nn(-c2c(Cl)cc(-n3nc(C#N)c(=O)[nH]c3=O)cc2Cl)c2ccc(O)cc12 [Compound 91]
3470		90000	Cc1nn(-c2cc(Cl)c(Oc3cc([C@H](C)c4ccccc4)c(=O)[nH]n3)c(Cl)c2)c(=O)[nH]c1=O (single isomer, unassigned) [Compound 72]
810		26900	Cc1nn(-c2cc(Br)c(Oc3cc(C(=O)c4ccccc4)c(=O)[nH]n3)c(Br)c2)c(=O)[nH]c1=O [Compound 78]
	18500		CC(c1cc(Oc2c(Cl)cc(-n3nc(C#N)c(=O)[nH]c3=O)cc2C(F)(F)F)n[nH]c1=O)C1CCCCC1 (single isomer, unassigned) [Compound 99]
780		7820	Cc1nn(-c2cc(Cl)c(Oc3cc(Cc4cccc(F)c4)c(=O)[nH]n3)c(Cl)c2)c(=O)[nH]c1=O [Compound 68]
1630		90000	N#Cc1nn(-c2cc(Cl)c(Oc3cc(Cc4ccccc4O)c(=O)[nH]n3)c(Cl)c2)c(=O)[nH]c1=O [Compound 57]
1050		43400	Cc1nn(-c2cc(Cl)c(Oc3cc(C(C)C4CCCCC4)c(=O)[nH]n3)c(Cl)c2)c(=O)[nH]c1=O (single isomer, unassigned) [Compound 76]
20	230	140	CC(C)c1c[nH]c2ccc(Oc3c(Cl)cc(-n4nc(C#N)c(=O)[nH]c4=O)cc3C(F)(F)F)cc12 [Compound 83]
	5500		CC(c1cc(Oc2c(Cl)cc(-n3nc(C#N)c(=O)[nH]c3=O)cc2C(F)(F)F)n[nH]c1=O)C1CCCCC1 (single isomer, unassigned) [Compound 98]
2620		90000	COc1ccccc1Cc1cc(Oc2c(Cl)cc(-n3nc(C)c(=O)[nH]c3=O)cc2Cl)n[nH]c1=O [Compound 69]
180	5290	1430	N#Cc1nn(-c2cc(Cl)c(Oc3cc(C4CCC4)c(=O)[nH]n3)c(C(F)(F)F)c2)c(=O)[nH]c1=O [Compound 62]
